According to patent US4902709A, “Novel antihypercholesterolemic compounds” (Merck & Co., Inc., priority 1988, dated 1990):

Target: T1, HMG-CoA reductase (Rattus norvegicus, UniProt P51639)
T1 sequence (P51639 1-887): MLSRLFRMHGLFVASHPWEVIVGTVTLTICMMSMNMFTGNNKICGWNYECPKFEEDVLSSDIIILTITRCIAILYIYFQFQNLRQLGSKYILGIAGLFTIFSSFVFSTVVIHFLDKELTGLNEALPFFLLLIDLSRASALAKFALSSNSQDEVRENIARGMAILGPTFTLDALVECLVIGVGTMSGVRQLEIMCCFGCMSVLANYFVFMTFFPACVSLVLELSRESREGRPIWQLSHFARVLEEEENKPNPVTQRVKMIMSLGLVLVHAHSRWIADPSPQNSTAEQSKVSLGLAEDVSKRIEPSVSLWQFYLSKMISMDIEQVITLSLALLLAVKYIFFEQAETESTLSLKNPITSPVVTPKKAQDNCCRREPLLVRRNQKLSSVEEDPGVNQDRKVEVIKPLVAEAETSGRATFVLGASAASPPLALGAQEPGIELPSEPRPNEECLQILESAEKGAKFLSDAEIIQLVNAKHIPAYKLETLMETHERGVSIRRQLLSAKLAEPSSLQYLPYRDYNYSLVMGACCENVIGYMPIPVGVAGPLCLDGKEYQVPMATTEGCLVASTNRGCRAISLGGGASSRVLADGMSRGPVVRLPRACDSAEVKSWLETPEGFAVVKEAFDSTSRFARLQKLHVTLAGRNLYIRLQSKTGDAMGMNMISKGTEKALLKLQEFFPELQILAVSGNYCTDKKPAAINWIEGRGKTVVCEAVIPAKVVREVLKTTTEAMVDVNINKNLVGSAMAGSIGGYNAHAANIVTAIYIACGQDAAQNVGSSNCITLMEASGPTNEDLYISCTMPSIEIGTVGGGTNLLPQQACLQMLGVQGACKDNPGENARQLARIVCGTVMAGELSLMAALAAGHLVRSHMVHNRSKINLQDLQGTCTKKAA
Experiment: intrinsic HMG-CoA reductase inhibition (in vitro procedure detailed in U.S. Pat. No. 4,668,699)
Format: biochemical
Conditions: 2,4 dichloro derivatives of formula I

Structure (SMILES) | IC50 [µM]
O=C1C[C@H](c2ccc(-c3ccccc3)cc2)C[C@@H](CCc2ccc(Cl)cc2Cl)O1 (relative stereo) [Example 2] | 33.6
O=C1C[C@@H](c2ccc(O)cc2)C[C@H](CCc2ccc(Cl)cc2Cl)O1 (relative stereo) [Example 5] | 20.8
O=C1C[C@@H](c2ccccc2CO)C[C@H](CCc2ccc(Cl)cc2Cl)O1 (relative stereo) [Example 8] | 42
O=C1C[C@@H](c2ccccc2)C[C@H](CCc2ccc(Cl)cc2Cl)O1 (relative stereo) [Example 1, trans-6-[2-(2,4-dichlorophenyl)ethyl]-3,4,5,6-tetrahydro-4-phenyl-2H-pyran-2-one] | 21
COc1ccc([C@@H]2CC(=O)O[C@@H](CCc3ccc(Cl)cc3Cl)C2)cc1 (relative stereo) [Example 4] | 43.5
